Among the test systems are OVCAR-5; SR; SNB-75; NCI-H522; UACC-257; HT-29; 786-0; SK-OV-3; EKVX; SK-MEL-28; K562; Malme-3M; ACHN; SNB-19; UO-31; OVCAR-8; SK-MEL-2; HOP-62; IGROV-1; HCT-15.
Common to all, as to test: inhibition of tumour cell growth, NCI panel, 48 h

Each structure is given as a SMILES string.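 Growth conditions: 96-well plates. Treatment: test compound, 48 hours, 5 concentrations. Analysis: linear interpolation between bracketing concentrations; unreached endpoints set to highest concentration. GI50 marks 50% less growth.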 Activity calls are given as the source filed them. Rule as the data show it: active = GI50 up to about 1.1 µM and inactive = higher. A value given as a limit tells only on which side of the number the result lay.

For the compound `Clc1cc(Cl)cc(C2SCc3nc4ccccc4n32)c1` (stereo unspecified), the GI50 in the assay on OVCAR-5 was 18.1 µM (inactive); with SR, 17.2 µM (inactive); in the assay on SNB-75, 43.4 µM (inactive); with NCI-H522 it was 14.3 µM (inactive); in the assay with UACC-257 it was 15.2 µM (inactive); with HT-29, 12 µM (inactive). Moreover, the GI50 was 15.6 µM (inactive) in the assay with 786-0; 22.8 µM (inactive) with SK-OV-3; 22.6 µM (inactive) in the assay on EKVX; 13.8 µM (inactive) with SK-MEL-28; 3.82 µM (inactive) in the assay on K562; 15.8 µM (inactive) in the assay with Malme-3M. Moreover, the GI50 in the assay with ACHN is 22.9 µM (inactive); in the assay on SNB-19 it was 20.7 µM (inactive); with UO-31 it was 19.3 µM (inactive); in the assay with OVCAR-8, 17 µM (inactive); with SK-MEL-2 it was 17.6 µM (inactive).
As to `Cc1c2cc[n+](C)cc2c(C)c2c1[nH]c1ccccc12`, the GI50 was 10.2 µM (inactive) in the assay with OVCAR-5; 0.497 µM (active) in the assay with SR; 0.184 µM (active) in the assay with SNB-75; 0.774 µM (active) with NCI-H522; 6.41 µM (inactive) in the assay with UACC-257; 0.45 µM (active) in the assay with HOP-62. The GI50 with IGROV-1 is 3.79 µM (inactive); with HT-29, 5.66 µM (inactive); with SK-OV-3, 4.88 µM (inactive); in the assay on EKVX, 0.834 µM (active); with SK-MEL-28, 1.62 µM (inactive); in the assay with K562, 3.05 µM (inactive). For the same compound, the GI50 in the assay on Malme-3M is 0.953 µM (active); in the assay with ACHN, 12.8 µM (inactive); in the assay with SNB-19, 0.301 µM (active); with UO-31, 8.65 µM (inactive); with OVCAR-8 it was 0.368 µM (active); in the assay with SK-MEL-2, 1.28 µM (inactive).
Turning to `COc1cccc(/C=C2/S/C(=N/Nc3nc(C)c(C(C)=O)s3)NC2=O)c1O`, the GI50 in the assay on OVCAR-5 is 26.4 µM (inactive); in the assay on SR, 27.7 µM (inactive); in the assay on SNB-75, 37.9 µM (inactive); with NCI-H522 it was 17.3 µM (inactive); in the assay on UACC-257, 25.4 µM (inactive); with HOP-62, 51.6 µM (inactive). Also, the GI50 in the assay on HCT-15 was 26.2 µM; in the assay with IGROV-1, 35.9 µM (inactive); in the assay with HT-29, 37.6 µM (inactive); with 786-0, 27.8 µM (inactive); in the assay on SK-OV-3, 66.8 µM (inactive); in the assay with EKVX it was 24.9 µM (inactive). Further, the GI50 in the assay with SK-MEL-28 was 39.7 µM (inactive); with K562, 31.1 µM (inactive); with Malme-3M it was 33 µM (inactive); in the assay with ACHN, 22 µM (inactive); with SNB-19, 38 µM (inactive); in the assay on UO-31, 21.5 µM (inactive). For the same compound, the GI50 in the assay on OVCAR-8 is 34.3 µM (inactive); with SK-MEL-2 it was 21.2 µM (inactive).
As for `CC(C)[C@H]1CO[C@@H]2O[C@H](C)CC(=O)N21`, the GI50 in the assay on SR is > 100 µM (inactive); in the assay on SNB-75 it was > 100 µM (inactive); in the assay with NCI-H522 it was > 100 µM (inactive); in the assay with UACC-257, > 100 µM (inactive); with HOP-62, > 100 µM (inactive); with HCT-15, greater than 100 µM. For the same compound, the GI50 with IGROV-1, in the assay on HT-29, with 786-0, with SK-OV-3, in the assay on EKVX and in the assay with SK-MEL-28 was > 100 µM (inactive) each time. The GI50 with K562, with Malme-3M, in the assay on ACHN, in the assay on SNB-19, in the assay with UO-31 and with OVCAR-8 was > 100 µM (inactive) in each case. For the same compound, the GI50 in the assay with SK-MEL-2 was > 100 µM (inactive).
With `OC1C2CCC3C2CC(C(O)(c2ccccc2)c2ccccc2)C13` (stereo unspecified), the GI50 in the assay on OVCAR-5 was > 100 µM (inactive); in the assay with SR, 32.7 µM (inactive); in the assay with SNB-75 it was 5.47 µM (inactive); with NCI-H522, 34.8 µM (inactive); in the assay with UACC-257, 24.6 µM (inactive); in the assay with HOP-62 it was 63.2 µM (inactive). Also, the GI50 was 31.5 µM with HCT-15; 23.9 µM (inactive) in the assay on IGROV-1; 74.5 µM (inactive) in the assay on HT-29; 37.5 µM (inactive) in the assay on 786-0; > 100 µM (inactive) in the assay with SK-OV-3; 33.8 µM (inactive) in the assay on EKVX. Besides, the GI50 is > 100 µM (inactive) in the assay with SK-MEL-28; 18.2 µM (inactive) with K562; 28.4 µM (inactive) in the assay on Malme-3M; 33.7 µM (inactive) with ACHN; > 100 µM (inactive) with SNB-19; 67.6 µM (inactive) with UO-31. Also, the results for the GI50 with OVCAR-8 and in the assay with SK-MEL-2 were 93.1 µM (inactive) and 18.4 µM (inactive), respectively.
As to `COc1nc2c(N3CCCC3)nc(N3CCNCC3)nc2nc1NCc1ccccc1`, the GI50 is 2.61 µM (inactive) in the assay on OVCAR-5; 1.32 µM (inactive) in the assay on SR; 1.44 µM (inactive) with SNB-75; 1.09 µM (active) in the assay with NCI-H522; 1.74 µM (inactive) with UACC-257; 0.855 µM (active) in the assay on HOP-62. In addition, the GI50 in the assay on HCT-15 was 1.72 µM; in the assay with IGROV-1, 2.03 µM (inactive); with HT-29 it was 1.07 µM (active); with 786-0, 1.33 µM (inactive); with SK-OV-3, 2.05 µM (inactive); in the assay with EKVX, 2.77 µM (inactive). Further, the GI50 is 2.01 µM (inactive) in the assay with SK-MEL-28; 1.67 µM (inactive) in the assay on K562; 2.07 µM (inactive) in the assay with Malme-3M; 1.98 µM (inactive) in the assay with ACHN; 1.71 µM (inactive) in the assay on SNB-19; 1.48 µM (inactive) with UO-31. Also, the GI50 in the assay on OVCAR-8 is 2.83 µM (inactive); in the assay on SK-MEL-2, 1.66 µM (inactive).
As for `O=Cc1cc(O)ccc1Br`, the GI50 was 32.1 µM (inactive) in the assay with OVCAR-5; 2.63 µM (inactive) in the assay on SR; 14.4 µM (inactive) in the assay on SNB-75; 38.4 µM (inactive) with NCI-H522; 41.5 µM (inactive) in the assay with UACC-257; 9.71 µM (inactive) in the assay on HOP-62. Moreover, the GI50 with HCT-15 is 3.15 µM; with IGROV-1, 28.1 µM (inactive); with HT-29 it was 18.2 µM (inactive); with 786-0 it was 22.6 µM (inactive); in the assay on SK-OV-3, 34.7 µM (inactive); in the assay with EKVX, 65.6 µM (inactive). In addition, the GI50 in the assay with SK-MEL-28 was 15 µM (inactive); in the assay on K562, 2.86 µM (inactive); in the assay with Malme-3M, 18.5 µM (inactive); in the assay on ACHN it was 19.8 µM (inactive); in the assay on SNB-19 it was 12.5 µM (inactive); in the assay on UO-31, 19.5 µM (inactive). Further, the GI50 with OVCAR-8 was 5.05 µM (inactive); in the assay on SK-MEL-2, 44.4 µM (inactive).
Regarding `O=C(CCCN1CCC(C(O)c2ccc(F)cc2)CC1)c1ccc(F)cc1` (stereo unspecified), the GI50 in the assay with OVCAR-5 was 58.2 µM (inactive); in the assay on SR it was 69.8 µM (inactive); in the assay with SNB-75, 44.3 µM (inactive); with NCI-H522, 66.8 µM (inactive); in the assay on UACC-257, 60.7 µM (inactive); in the assay on HOP-62, 62.8 µM (inactive). Moreover, the GI50 with HCT-15 is 62.2 µM; in the assay with IGROV-1, 61.9 µM (inactive); in the assay with HT-29, 42.3 µM (inactive); in the assay on 786-0, 44.9 µM (inactive); with SK-OV-3 it was 69.8 µM (inactive); in the assay on EKVX, 62.1 µM (inactive). For the same compound, the GI50 with SK-MEL-28 is 59.3 µM (inactive); in the assay with K562, 39.7 µM (inactive); in the assay on Malme-3M, 55.3 µM (inactive); with ACHN, 50.6 µM (inactive); with SNB-19 it was 60.7 µM (inactive); in the assay with UO-31, 23.1 µM (inactive). For the same compound, the GI50 in the assay with OVCAR-8 was 64.7 µM (inactive); in the assay on SK-MEL-2, 57.4 µM (inactive).
With `CO/C(=N\N=Cc1ccccc1)c1ccncc1`, the GI50 with OVCAR-5 is > 100 µM (inactive); with SR, > 100 µM (inactive); with SNB-75, 31.3 µM (inactive); in the assay with NCI-H522, 68.9 µM (inactive); in the assay on UACC-257, > 100 µM (inactive); in the assay with HOP-62 it was > 100 µM (inactive). Also, the GI50 with HCT-15 was greater than 100 µM; in the assay with IGROV-1, > 100 µM (inactive); in the assay on HT-29, > 100 µM (inactive); in the assay with SK-OV-3, > 100 µM (inactive); with EKVX, > 100 µM (inactive); in the assay with SK-MEL-28 it was > 100 µM (inactive). Besides, the GI50 was > 100 µM (inactive) in the assay with K562; > 100 µM (inactive) with Malme-3M; > 100 µM (inactive) with ACHN; > 100 µM (inactive) in the assay with SNB-19; 47.2 µM (inactive) in the assay with UO-31; > 100 µM (inactive) in the assay with OVCAR-8. For the same compound, the GI50 with SK-MEL-2 was > 100 µM (inactive).
Turning to `CN(CC(=O)O)c1ncc2c(n1)-c1ccccc1OC2c1ccccc1` (stereo unspecified), the GI50 with OVCAR-5 is > 100 µM (inactive); in the assay with SR, 37 µM (inactive); in the assay with SNB-75, 43.6 µM (inactive); in the assay on NCI-H522, > 100 µM (inactive); in the assay with UACC-257, > 100 µM (inactive); with HOP-62 it was > 100 µM (inactive). In addition, the GI50 in the assay with HCT-15 was greater than 100 µM; in the assay with IGROV-1, > 100 µM (inactive); in the assay with HT-29 it was > 100 µM (inactive); in the assay on SK-OV-3 it was > 100 µM (inactive); with EKVX it was > 100 µM (inactive); in the assay on SK-MEL-28, > 100 µM (inactive). For the same compound, the GI50 in the assay on K562 was 71.8 µM (inactive); with Malme-3M, > 100 µM (inactive); in the assay with ACHN, > 100 µM (inactive); with SNB-19 it was > 100 µM (inactive); in the assay with UO-31, 38 µM (inactive); in the assay with OVCAR-8, > 100 µM (inactive). The GI50 with SK-MEL-2 is 87.7 µM (inactive).
On to `CSC1(C)C(=O)Nc2c(OCc3ccccc3)cc([N+](=O)[O-])cc21` (stereo unspecified), for which the GI50 was 63 µM (inactive) in the assay with OVCAR-5; > 100 µM (inactive) in the assay on SR; 11.9 µM (inactive) with SNB-75; 94.8 µM (inactive) with NCI-H522; > 100 µM (inactive) in the assay on UACC-257; > 100 µM (inactive) in the assay with HOP-62. Also, the GI50 with HCT-15 is 50.5 µM; in the assay with IGROV-1 it was 54.8 µM (inactive); with HT-29, 79.3 µM (inactive); in the assay with 786-0, 12.9 µM (inactive); in the assay on SK-OV-3, > 100 µM (inactive); in the assay on EKVX, 29.4 µM (inactive). Besides, the GI50 with SK-MEL-28 is 75.3 µM (inactive); in the assay on K562, 91 µM (inactive); in the assay with Malme-3M, 63.4 µM (inactive); in the assay with ACHN, > 100 µM (inactive); in the assay on SNB-19 it was > 100 µM (inactive); with OVCAR-8, 21.5 µM (inactive). In the assay with SK-MEL-2, the GI50 was 38.7 µM (inactive).

The values are drawn from ChEMBL document CHEMBL1201862, “PubChem BioAssay data set” (2004).
